Drawing on patent US8975265B2, “Substituted imidazo[1,2-a]pyrimidines and —pyridines” (Bayer Intellectual Property GmbH, priority 2010, dated 2015), this text covers IC50 and response vs control in vivo for twelve molecules.

Read-outs that look alike come from different tables or passages of the source.

Test [1] relates to KPL-4 breast cancer cell line. In words: Tumor cell proliferation assay (CellTiter-Glo, 72 h), KPL-4. In kind it is cell-based. The settings on record: KPL4, 72h drug exposure. A digest of the protocol: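 KPL-4 cells were treated with compound for 72 h at 37°C. Viability was measured as ATP by CellTiter-Glo luminescence, with a separate t=0 plate read after overnight attachment. A reference compound was run as standard.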

Test [2] relates to p-AKT1/2/3-S473 in KPL4 breast tumour cell line. In words: Cellular p-AKT1/2/3-S473 assay. The conditions noted are these: KPL4 breast tumour cell line, 2 hours treatment; read-out: pAKT-S743 median IC50. In kind it is cell-based. A digest of the protocol:
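KPL4 cells (PIK3CA H1047R, HER2 0/E, hormone independent) were seeded at 60–80% confluency, cultured overnight, then exposed to compound for 2 h at 37 °C. pAKT-S473 and total AKT measured together by MSD Akt Duplex on 20 µg extract; pAKT expressed as % of total AKT, at least duplicate with independent repeats.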

In test [3] the test system is p-AKT S473 in PC3 human prostate tumours. Briefly: In vivo xenograft mechanism of action study. Set-up: species or system athymic nude mice. The conditions noted are these: Mus musculus, po, PC3 tumours in nude mice, once 50 mg/kg p.o. From the text: In Vivo Xenograft Mechanism of Action Study
To this extent PC3 human prostate tumours were xenografted onto athymic nude mice. PC3 tumour cells were cultivated according to ATCC protocols in recommended media contained 10% FCS and harvested for transplantation in a subconfluent (70%) state. 3×10^6 tumour cells suspended in 50% Matrigel were subcutaneously implantated into the inguinal region of male mice. Tumours were allowed to grow to the predetermined size of 60-80 mm^2. When the tumours were approximately in size, the animals were randomized to treatment and control groups (groups size: 9 animals) and treatment was started. Animals were treated once with 50 mg/kg compound or vehicle per oral administration (p.o.) carried out via a gastric tube. Treatment of each animal was based on individual body weight. At 2, 5 and 24 hours post treatment 3 animals each were sacrificed and the PC3 tumours excised. Tumour samples of approximately 5×5×5 mm were lysed on ice in MSD lysis buffer in the presence of protease and phosphatase inhibitors using Tissue Lyzer (Qiagen, Germany). The levels of p-AKT S473 in extracts from tumour tissue were analysed in an ELISA based assay. This assay is based on the “Akt Duplex” of the MULTI-SPOT® Assay System (Fa. Meso Scale Discovery, Cat# N41100B-1) following manufacturers instructions. Each assay used 20 μg of protein extract and measured total AKT and p-AKT content simultaneously in one well. All measurements where at least done in duplicates and confirmed by independent repetition.
Values for P-AKT are expressed as percentage of P-AKT level compared to total-AKT content of the extracts. Vehicle treated tumours were analyzed to determine the basal level of P-AKT in this model and used as a normalization control to determine the % P-AKT relative to vehicle levels.

The target of test [4] is His-tagged human recombinant kinase full-length Akt1 (Homo sapiens (Human), UniProt P31749). Briefly: Akt1 kinase assay (TR-FRET). The conditions noted are these: 10 μM ATP; read-out: Akt1, median IC50. It counts as biochemical. A digest of the protocol: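 Full-length His-tagged Akt1 (about 0.05 ng/μl final) preincubated 15 min at 22 °C with compound in 50 mM TRIS/HCl pH 7.5, 5 mM MgCl2, 1 mM DTT, 0.02% Triton X-100; biotinylated peptide substrate. Phosphopeptide detected by TR-FRET (Eu-chelate antibody to streptavidin-XL665) after 1 h at 22 °C.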
(In TR-FRET formats the signal depends on donor and acceptor labels being close together.)

The test system of test [5] is MCF7. In words: Tumor cell proliferation assay (CellTiter-Glo, 72 h), MCF7. In kind it is cell-based. The settings on record: Homo sapiens, 72h drug exposure. On the procedure: Compounds were tested in a cell-based assay that measures the capacity of the compounds to inhibit tumour cell proliferation following a 72h drug exposure. Cell viability is determined using CellTiter-Glow® (CTG, Promega, cat# G7571/2/3). The CellTiter-Glo® Luminescent Cell Viability Assay is a homogeneous method to determine the number of viable cells in culture. Detection is based on using the luciferase reaction to measure the amount of ATP from viable cells. The amount of ATP in cells correlates with cell viability. Within minutes after a loss of membrane integrity, cells lose the ability to synthesize ATP, and endogenous ATPases destroy any remaining ATP; thus the levels of ATP fall precipitously.
Cells were plated at 3000-5000 cells/well (depending on the cell lines) in 90 μL growth medium on MTPs (Corning; #3603, black plate, clear flat bottom). For each cell line assayed, cells were plated onto a separate plate for determination of […] at t=0 hour and t=72 hour time points. Following overnight incubation at 37° C., chemiluminescence values for the t=0 samples were determined after adding 10 μl medium and 100 μl CTG solution according to manufacture protocol. Plates for the t=72 hour time points were treated with compounds diluted into growth medium at ten times final concentration added in 10 μL to the cell culture plate. Cells were then incubated for 72 hours at 37° C. Chemiluminescence values for the t=72 hour samples were determined. […] Experiments were controlled using a reference compound as standard.
(In general: In ATP-based viability assays light output follows the ATP content of the culture.)

In test [6] the test system is p-4E-BP1-T70 in KPL4 breast tumour cell line. Briefly: Cellular p-4E-BP1-T70 assay. In kind it is cell-based. The settings on record: 2 hours treatment, read-out: P4EBP1-T70 median IC50. The protocol:
The molecular mechanism of action was investigated in a set of experiments to assess the inhibition of the PI3K-AKT-mTOR pathway in responsive cell lines such as KPL4 breast tumour cell line (PIK3CAH1047R, HER20/E and hormone independent). The phospho-substrates of PI3K-AKT-mTOR axis were used as the read-outs to reflect pathway inhibition. Cells were seeded at 60-80% confluency per well in 96-well cell culture plates. After overnight incubation at 37° C. 5% CO2, cells were treated with compounds and vehicle at 37° C. for 2 hours. Thereafter, cells were lysed in 150 μl lysis buffer and the levels of phospho-AKT at T308 and S473 and p-4E-BP1 at T70 sites were determined with the corresponding AlphaScreen® SureFire® assay kits (Perkin Elmer: 4E-BP1 Assay Kit Cat # TRG4E2S10K; Akt 1/2/3 p-Ser 473 #TGRA4S500 and Akt 1/2/3 p-Thr 308 #TGRA3S500 as well as IgG detection Kit #6760617M) as described in the manuals. All measurements where at least done in duplicates and confirmed by independent repetition.

Setting [7] is: 2 hours post treatment, read-out: P-AKT % relative to control at 2 hours.
Where [8] appears, read: 5 hours post treatment, read-out: P-AKT % relative to control at 5 hours.

His-tagged human recombinant kinase full-length Akt1, sequence (P31749 whole entry): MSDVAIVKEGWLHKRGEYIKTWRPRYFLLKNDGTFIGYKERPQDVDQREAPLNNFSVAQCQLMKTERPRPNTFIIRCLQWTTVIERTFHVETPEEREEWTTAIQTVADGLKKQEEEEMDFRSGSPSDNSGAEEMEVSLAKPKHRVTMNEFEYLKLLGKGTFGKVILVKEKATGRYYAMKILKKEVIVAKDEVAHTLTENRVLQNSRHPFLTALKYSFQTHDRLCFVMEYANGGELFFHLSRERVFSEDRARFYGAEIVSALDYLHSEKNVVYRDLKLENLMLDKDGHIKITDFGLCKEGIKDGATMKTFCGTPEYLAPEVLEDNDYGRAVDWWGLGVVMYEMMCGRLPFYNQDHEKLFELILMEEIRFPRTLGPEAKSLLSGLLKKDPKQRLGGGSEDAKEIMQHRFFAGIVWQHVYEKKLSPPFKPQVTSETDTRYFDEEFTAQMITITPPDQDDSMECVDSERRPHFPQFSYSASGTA

Usually IC50 stands for the concentration at which inhibition is half-maximal. `NC1(c2ccc(-c3nc4ncc(-c5ccccc5)cn4c3-c3ccccc3)cc2)CCC1` [Example 1-9]: the values for the IC50 in test [1] and in test [2] were 2000 nM and 770 nM, respectively. Further, the response vs control in vivo at 50 mg/kg in test [3] (setting [7]) was 32.2%; in test [3] (setting [8]), 21.1%.
For `COc1ccn2c(-c3ccccc3)c(-c3ccc(C4(N)CCC4)cc3)nc2n1` [Example 2-00, 1-[4-(7-methoxy-3-phenyl-imidazo[1,2-a]pyrimidin-2-yl)-phenyl]-cyclobutylamine], the response vs control in vivo at 50 mg/kg in test [3] (setting [7]) was found to be 4.7%; in test [3] (setting [8]) it was 6.3%.
For the molecule `NC(=O)c1ccc2nc(-c3ccc(C4(N)CCC4)cc3)c(-c3ccccc3)n2c1` [Example 2-18], the half-maximal inhibitory concentration (IC50) is 500 nM in test [1] and 33 nM in test [2]. Besides, the response vs control in vivo at 50 mg/kg was found to be 8% in test [3] (setting [7]) and 7.7% in test [3] (setting [8]).
For `NC(=O)c1ccn2c(-c3ccccc3)c(-c3ccc(C4(N)CCC4)cc3)nc2c1` [Example 2-41], the IC50 worked out at 600 nM in test [1] and 33 nM in test [2]. Further, the figures for the response vs control in vivo at 50 mg/kg in test [3] (setting [7]) and in test [3] (setting [8]) were 10.2% and 8.8%, respectively.
In the case of `COc1cc(Br)cn2c(-c3ccccc3)c(-c3ccc(C4(N)CCC4)cc3)nc12` [Example 2-52], the IC50 in test [1] came to 1500 nM; in test [2], 49 nM; in test [4], 19 nM; in test [5] it was 1100 nM. Also, the values for the response vs control in vivo at 50 mg/kg in test [3] (setting [7]) and in test [3] (setting [8]) were 34.9% and 47.9%, respectively.
Consider `Cc1cc(C)c2nc(-c3ccc(C4(N)CCC4)cc3)c(-c3ccccc3)n2c1` [Example 2-73], for which the 50% inhibitory concentration (IC50) in test [1] was found to be 1800 nM; in test [2], 235 nM; in test [6] it was 3980 nM; in test [5], 1700 nM. The response vs control in vivo at 50 mg/kg came to 9.1% in test [3] (setting [7]) and 9.3% in test [3] (setting [8]).
As to `Cc1c(Cl)cn2c(-c3ccccc3)c(-c3ccc(C4(N)CCC4)cc3)nc2c1Br` [Example 2-81], the IC50 in test [1] was 1800 nM; in test [2], 1100 nM; in test [6], 3480 nM; in test [5], 1700 nM. Further, the figures for the response vs control in vivo at 50 mg/kg in test [3] (setting [7]) and in test [3] (setting [8]) were 33.6% and 69.6%, respectively.
In the case of `Cc1cc(-c2cccnc2)c2nc(-c3ccc(C4(N)CCC4)cc3)c(-c3ccccc3)n2c1` [Example 2-90], the half-inhibitory concentration (IC50) is 1900 nM in test [1], 337 nM in test [2], 1560 nM in test [6] and 1700 nM in test [5]. The response vs control in vivo at 50 mg/kg in test [3] (setting [7]) came out at 51.6%; in test [3] (setting [8]), 53.7%.
Take `Cc1cc(-c2cn[nH]c2)c2nc(-c3ccc(C4(N)CCC4)cc3)c(-c3ccccc3)n2c1` [Example 2-93]: the half-maximal inhibitory concentration (IC50) in test [1] came to 2000 nM; in test [2], 528 nM; in test [6], 1420 nM; in test [5], 1800 nM. Also, the response vs control in vivo at 50 mg/kg in test [3] (setting [7]) is 46%; in test [3] (setting [8]), 79.2%.
Regarding `NC1(c2ccc(-c3nc4cc(-c5ncc[nH]5)ccn4c3-c3ccccc3)cc2)CCC1` [Example 2-114], the IC50 stood at 800 nM in test [1], 25 nM in test [2], 71 nM in test [4] and 700 nM in test [5]. Also, the response vs control in vivo at 50 mg/kg in test [3] (setting [7]) turned out to be 47%; in test [3] (setting [8]), 57.2%.
For the molecule `C=Cc1cc(OC)c2nc(-c3ccc(C4(N)CCC4)cc3)c(-c3ccccc3)n2c1` [Example 2-160], the IC50 in test [1] amounted to 1600 nM; in test [2], 349 nM; in test [6] it was 1380 nM; in test [4], 191 nM; in test [5], 800 nM.
`Cc1cccc2nc(-c3ccc(C4(N)CCC4)cc3)c(-c3ccccc3)n12` [Example 14-0, 1-[4-(5-methyl-3-phenylimidazo[1,2-a]pyridin-2-yl)phenyl]cyclobutanamine]: the IC50 stood at 3100 nM in test [1]; 1120 nM in test [2]; 8150 nM in test [6]; 1500 nM in test [4]; 1800 nM in test [5].
